Source: ChEMBL document CHEMBL1201862, “PubChem BioAssay data set” (2004)
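Results reflect a 48-hour exposure of cells in 96-well plates to compound at five concentrations. GI50 is the concentration that inhibits growth by half.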 The source made the active and inactive calls. Rule as the data show it: active = GI50 up to about 1.1 µM and inactive = higher.

Tests used:
Assay in all cases: NCI anticancer screen, dose series, 48 h
HOP-18 = test system: HOP-18
M19-MEL = test system: M19-MEL
RXF 631 = test system: RXF 631
LXFL 529 = test system: LXFL 529
SNB-78 = test system: SNB-78
KM-20L2 = test system: KM-20L2
DMS-273 = test system: DMS-273
DMS-114 = test system: DMS-114
XF498 = test system: XF498

SMILES | GI50 (HOP-18) | GI50 (M19-MEL) | GI50 (RXF 631) | GI50 (LXFL 529) | GI50 (SNB-78) | GI50 (KM-20L2) | GI50 (DMS-273) | GI50 (DMS-114) | GI50 (XF498)
O=C(CC(O)(c1ccccc1)c1ccc(Cl)cc1)NC(=O)c1ccccc1O (centres undefined) | 2.39 µM (inactive) | 18.6 µM (inactive) | 15.6 µM (inactive) | 4.35 µM (inactive) | 27.1 µM (inactive) | 14.8 µM (inactive) | 13.2 µM (inactive) | 6.04 µM (inactive) | –
O=C(Cc1nc2sc3c(c2c(=O)[nH]1)CCCC3)Nc1ccccc1 | > 100 µM (inactive) | > 100 µM (inactive) | – | > 100 µM (inactive) | – | > 100 µM (inactive) | > 100 µM (inactive) | > 100 µM (inactive) | > 100 µM (inactive)
Oc1cccc(-c2cccc(O)n2)n1 | > 100 µM (inactive) | > 100 µM (inactive) | > 100 µM (inactive) | > 100 µM (inactive) | > 100 µM (inactive) | – | > 100 µM (inactive) | > 100 µM (inactive) | –
Cn1nc(-c2cccc(-c3nn(C)/c(=N\CCO)s3)n2)s/c1=N/CCO | > 100 µM (inactive) | > 100 µM (inactive) | – | > 100 µM (inactive) | 41.6 µM (inactive) | > 100 µM (inactive) | > 100 µM (inactive) | > 100 µM (inactive) | –
CC(=O)OC1(Sc2ccccc2)CC2[C@H]3COC(C)(C)O[C@H]3CC[C@@]2(C)CC1=O (some centres undefined) | – | 50.9 µM (inactive) | 14.4 µM (inactive) | 34.2 µM (inactive) | > 100 µM (inactive) | 37.5 µM (inactive) | 39.6 µM (inactive) | 27 µM (inactive) | 19.2 µM (inactive)
COc1ccc(/N=c2\ssc3c(=S)ssc23)cc1 | – | 30.2 µM (inactive) | – | 14.8 µM (inactive) | 34.2 µM (inactive) | – | 26.4 µM (inactive) | 0.959 µM (active) | –
Cc1cc(C)c2c(c1)Nc1ccccc1P2c1ccccc1 (centres undefined) | – | – | – | 29.2 µM (inactive) | 41.8 µM (inactive) | 30.6 µM (inactive) | 21.7 µM (inactive) | > 100 µM (inactive) | 4.86 µM (inactive)
CC12C3CC4C5CC(C(C53)[C@@H]1NCc1ccccc1)C42 (some centres undefined) | > 100 µM (inactive) | – | 84.3 µM (inactive) | > 100 µM (inactive) | > 100 µM (inactive) | 23.2 µM (inactive) | > 100 µM (inactive) | > 100 µM (inactive) | > 100 µM (inactive)
COC(=O)n1c(CBr)c(Br)c2ccccc21 | – | 61.7 µM (inactive) | – | – | – | > 100 µM (inactive) | 46.2 µM (inactive) | 36.7 µM (inactive) | –
CCCCCCCCOCC(O)CO (centres undefined) | > 100 µM (inactive) | > 100 µM (inactive) | > 100 µM (inactive) | > 100 µM (inactive) | > 100 µM (inactive) | > 100 µM (inactive) | > 100 µM (inactive) | > 100 µM (inactive) | 45.9 µM (inactive)
NCCCCC(=O)c1cccnc1 | > 100 µM (inactive) | > 100 µM (inactive) | – | > 100 µM (inactive) | > 100 µM (inactive) | > 100 µM (inactive) | > 100 µM (inactive) | > 100 µM (inactive) | > 100 µM (inactive)
O=c1c(Cl)c(Cl)cnn1CCc1ccncc1 | 20 µM (inactive) | 15.5 µM (inactive) | – | 15.8 µM (inactive) | 25.1 µM (inactive) | 18.9 µM (inactive) | 18.6 µM (inactive) | 14 µM (inactive) | 15.5 µM (inactive)
CC(C)(CN1CCCCC1)C(=O)/C=C/c1ccc(Cl)cc1 | 11.1 µM (inactive) | 6.76 µM (inactive) | 9.29 µM (inactive) | 2.54 µM (inactive) | 3.24 µM (inactive) | 2.36 µM (inactive) | 3.52 µM (inactive) | 3.65 µM (inactive) | –
CC(=O)Oc1cccc2c1C(=O)C(Br)(Br)CCC2 | 18.2 µM (inactive) | 7.28 µM (inactive) | 17.4 µM (inactive) | 6.55 µM (inactive) | 17.3 µM (inactive) | 8.05 µM (inactive) | 3.75 µM (inactive) | 2.54 µM (inactive) | 11.2 µM (inactive)
CCCCCCCCCCCCCCCCCC(=O)OCC(C[As](=O)(O)O)OC(=O)CCCCCCCCCCCCCCCCC (centres undefined) | > 100 µM (inactive) | > 100 µM (inactive) | 36.1 µM (inactive) | 72.9 µM (inactive) | 20.4 µM (inactive) | > 100 µM (inactive) | 65.3 µM (inactive) | 17.6 µM (inactive) | 23 µM (inactive)
CC(C)C1(O)C(c2ccccc2)=C(c2ccccc2)C(c2ccccc2)=C1c1ccccc1 | 10.9 µM (inactive) | – | 3.58 µM (inactive) | 5.19 µM (inactive) | 11.6 µM (inactive) | 8.32 µM (inactive) | 4.46 µM (inactive) | 3.4 µM (inactive) | 2.96 µM (inactive)
COc1cc2cnc3c4cc(OC)c(OC(C)C)cc4ccc3c2cc1OC | > 100 µM (inactive) | > 100 µM (inactive) | > 100 µM (inactive) | > 100 µM (inactive) | > 100 µM (inactive) | > 100 µM (inactive) | > 100 µM (inactive) | > 100 µM (inactive) | –
CCOC(=O)CC[C@@H](NC(=O)c1ccc(N[C@@H]2c3cc4c(cc3C(c3cc(OC)c(O)c(OC)c3)C3C(=O)OC[C@@H]32)OCO4)cc1)C(=O)OCC (some centres undefined) | 0.249 µM (active) | 0.0608 µM (active) | – | 7.23 µM (inactive) | 0.859 µM (active) | 0.0404 µM (active) | 0.00566 µM (active) | – | –
CC1O[C@@H]2CCCCC(=O)[C@]2(C)[C@H]1C (some centres undefined) | > 100 µM (inactive) | > 100 µM (inactive) | > 100 µM (inactive) | > 100 µM (inactive) | > 100 µM (inactive) | > 100 µM (inactive) | > 100 µM (inactive) | > 100 µM (inactive) | > 100 µM (inactive)
CN(C)CCC1(C2=CCCC2)CC/C(=C\c2ccc(Cl)cc2)C1=O (centres undefined) | 11.9 µM (inactive) | 5.22 µM (inactive) | 8.69 µM (inactive) | 8.95 µM (inactive) | 9.59 µM (inactive) | 2.43 µM (inactive) | 10.8 µM (inactive) | 6.27 µM (inactive) | 6.11 µM (inactive)
C[n+]1ccc(-c2cc[n+](C)cc2)cc1 [PARAQUAT DICHLORIDE] | > 100 µM (inactive) | 9.42 µM (inactive) | – | > 37.1 µM (inactive) | > 22.3 µM (inactive) | 17 µM (inactive) | 10.5 µM (inactive) | 8.75 µM (inactive) | 3.74 µM (inactive)
